Assay results from ChEMBL document CHEMBL4190255, “Novel celastrol derivatives with improved selectivity and enhanced antitumour activity: Design, synthesis and biological evaluation” (Eur J Med Chem, 2017).
pIC50: −log10 of the molar value. Activity calls are given as the source filed them. The rule behind the calls is not given here.

Columns and labels:
[1] = system: SK-OV-3; experiment: Induction of apoptosis in human SKOV3 cells at IC50 concentration after 24 hrs by Annexin V-FITC/propidium iodide double staining based flow cytometry; assay type: functional, cell-based
[2] = system: BJ; experiment: Cytotoxicity against human BJ cells assessed as reduction in cell viability after 72 hrs by MTT assay; assay type: cell-based
[3] = system: A549; experiment: Antiproliferative activity against human A549 cells after 72 hrs by MTT assay; assay type: functional, cell-based; settings: A549, 72 h
[4] = system: MIA PaCa-2; experiment: Antiproliferative activity against human MIAPaCa2 cells after 72 hrs by MTT assay; assay type: functional, cell-based; settings: MIA PaCa-2, 72 h
[5] = system: SK-OV-3; experiment: Antiproliferative activity against human SKOV3 cells after 72 hrs by MTT assay; assay type: functional, cell-based; settings: SK-OV-3, 72 h
[6] = system: SK-BR-3; experiment: Antiproliferative activity against human SKBR3 cells after 72 hrs by MTT assay; assay type: functional, cell-based; settings: SK-BR-3, 72 h
[7] = system: MDA-MB-231; experiment: Antiproliferative activity against human MDA-MB-231 cells after 72 hrs by MTT assay; assay type: functional, cell-based; settings: MDA-MB-231, 72 h
[8] = Selectivity index, ratio of IC50 for human BJ cells to IC50 for human A549 cells; assay type: toxicity; settings: BJ cells versus A549 cells, read-out: Ratio IC50
[9] = Selectivity index, ratio of IC50 for human BJ cells to IC50 for human MIAPaCa2 cells; assay type: toxicity; settings: BJ cells versus MIAPaCa2 cells, read-out: Ratio IC50
[10] = Selectivity index, ratio of IC50 for human BJ cells to IC50 for human SKOV3 cells; assay type: toxicity; settings: BJ cells versus SKOV3 cells, read-out: Ratio IC50
[11] = system: SK-OV-3; experiment: Cell cycle arrest in human SKOV3 cells assessed as accumulation at G0/G1 phase at IC50 concentration after 24 to 72 hrs by propidium iodide-based flow cytometry; assay type: functional
[12] = system: SK-OV-3; experiment: Cell cycle arrest in human SKOV3 cells assessed as accumulation at S phase at IC50 concentration after 24 to 72 hrs by propidium iodide-based flow cytometry; assay type: functional
[13] = system: SK-OV-3; experiment: Cell cycle arrest in human SKOV3 cells assessed as accumulation at G2/M phase at IC50 concentration after 24 to 72 hrs by propidium iodide-based flow cytometry; assay type: functional
[14] = system: SK-OV-3; experiment: Induction of apoptosis in human SKOV3 cells assessed as early apoptotic cells at IC50 concentration after 48 hrs by Annexin V-FITC/propidium iodide double staining based flow cytometry (reference value: 4.5%); assay type: functional
[15] = system: SK-OV-3; experiment: Induction of apoptosis in human SKOV3 cells assessed as early apoptotic cells at IC50 concentration after 72 hrs by Annexin V-FITC/propidium iodide double staining based flow cytometry (reference value: 4.7%); assay type: functional
[16] = system: SK-OV-3; experiment: Induction of apoptosis in human SKOV3 cells at IC50 concentration by Annexin V-FITC/propidium iodide double staining based flow cytometry; assay type: functional, cell-based; settings: TDE = time-dependent effect
[17] = system: SK-OV-3; experiment: Induction of apoptosis in human SKOV3 cells assessed as cell shrinkage at IC50 concentration after 48 hrs by Hoechst 33342 staining-based fluorescence microscopy; assay type: functional
[18] = system: SK-OV-3; experiment: Induction of apoptosis in human SKOV3 cells assessed as chromatin condensation at IC50 concentration after 48 hrs by Hoechst 33342 staining-based fluorescence microscopy; assay type: functional, cell-based
[19] = system: SK-OV-3; experiment: Induction of apoptosis in human SKOV3 cells assessed as formation of apoptotic bodies at IC50 concentration after 48 hrs by Hoechst 33342 staining-based fluorescence microscopy; assay type: functional, cell-based
[20] = system: SK-OV-3; experiment: Induction of apoptosis in human SKOV3 cells assessed as reduction in cell density at IC50 concentration after 48 hrs by Hoechst 33342 staining-based fluorescence microscopy; assay type: functional
[21] = system: SK-OV-3; experiment: Induction of apoptosis in human SKOV3 assessed as decrease in procaspase-8 levels at IC50 concentration after 72 hrs by Western blot analysis; assay type: functional, cell-based
[22] = system: SK-OV-3; experiment: Induction of apoptosis in human SKOV3 assessed as increase in cleaved caspase-8 levels at IC50 concentration after 72 hrs by Western blot analysis; assay type: functional, cell-based
[23] = system: SK-OV-3; experiment: Induction of apoptosis in human SKOV3 assessed as decrease in procaspase-3 levels at IC50 concentration after 72 hrs by Western blot analysis; assay type: functional, cell-based
[24] = system: SK-OV-3; experiment: Induction of apoptosis in human SKOV3 assessed as increase in cleaved PARP levels at IC50 concentration after 72 hrs by Western blot analysis; assay type: functional, cell-based
[25] = system: SK-OV-3; experiment: Induction of apoptosis in human SKOV3 assessed as effect on bid levels at IC50 concentration after 72 hrs by Western blot analysis; assay type: functional, cell-based
[26] = system: SK-OV-3; experiment: Induction of apoptosis in human SKOV3 assessed as effect on t-bid levels at IC50 concentration after 72 hrs by Western blot analysis; assay type: functional, cell-based
[27] = system: SK-OV-3; experiment: Induction of apoptosis in human SKOV3 assessed as effect on bcl2 levels at IC50 concentration after 72 hrs by Western blot analysis; assay type: functional, cell-based
[28] = system: SK-OV-3; experiment: Induction of apoptosis in human SKOV3 assessed as effect on bax levels at IC50 concentration after 72 hrs by Western blot analysis; assay type: functional, cell-based
[29] = system: SK-OV-3; experiment: Induction of apoptosis in human SKOV3 assessed as effect on caspase-9 levels at IC50 concentration after 72 hrs by Western blot analysis; assay type: functional, cell-based
[30] = system: SK-OV-3; experiment: Induction of apoptosis in human SKOV3 cells assessed as reduction in mutant p53 levels at IC50 concentration after 72 hrs by Western blot analysis; assay type: functional, cell-based
[31] = system: A549; experiment: Effect on wild-type p53 expression in human A549 cells at IC50 concentration after 72 hrs by Western blot analysis; assay type: ADME, cell-based; settings: a549, 72 h
[32] = molecular target: T1, Heat shock protein HSP90 (Homo sapiens) (UniProt P07900+P08238); experiment: Inhibition of HSP90 protein levels in human SKOV3 cells at IC50 concentration after 72 hrs by Western blot analysis; assay type: cell-based
[33] = molecular target: T1, Heat shock protein HSP90 (Homo sapiens); experiment: Inhibition of HSP90 in human SKOV3 cells assessed as decrease in phosphorylated Akt levels at IC50 concentration after 72 hrs by Western blot analysis; assay type: cell-based
[34] = system: SK-OV-3; experiment: Effect on total Akt levels in human SKOV3 cells at IC50 concentration after 72 hrs by Western blot analysis; assay type: ADME, cell-based; settings: sk-ov-3, 72 h
[35] = molecular target: T1, Heat shock protein HSP90 (Homo sapiens); experiment: Inhibition of HSP90 in human SKOV3 cells assessed as decrease in phosphorylated mTOR levels at IC50 concentration after 72 hrs by Western blot analysis; assay type: cell-based
[36] = system: SK-OV-3; experiment: Effect on total mTOR levels in human SKOV3 cells at IC50 concentration after 72 hrs by Western blot analysis; assay type: ADME, cell-based; settings: sk-ov-3, 72 h
[37] = system: SK-OV-3; experiment: Potentiation of cisplatin-induced cytotoxicity in human SKOV3 cells assessed as combination index by measuring reduction in cell viability at 0.15 uM after 72 hrs by MTT assay; assay type: functional
[38] = system: SK-OV-3; experiment: Potentiation of cisplatin-induced cytotoxicity in human SKOV3 cells assessed as combination index by measuring reduction in cell viability at 0.3 uM after 72 hrs by MTT assay; assay type: functional
[39] = system: SK-OV-3; experiment: Potentiation of cisplatin-induced cytotoxicity in human SKOV3 cells assessed as combination index by measuring reduction in cell viability at 0.6 uM after 72 hrs by MTT assay; assay type: functional
[40] = system: SK-OV-3; experiment: Potentiation of cisplatin-induced cytotoxicity in human SKOV3 cells assessed as combination index by measuring reduction in cell viability at 1.2 uM after 72 hrs by MTT assay; assay type: functional
[41] = system: SK-OV-3; experiment: Potentiation of cisplatin-induced cytotoxicity in human SKOV3 cells assessed as combination index by measuring reduction in cell viability at 2.4 uM after 72 hrs by MTT assay; assay type: functional
[42] = system: SK-OV-3; experiment: Potentiation of cisplatin-induced cytotoxicity in human SKOV3 cells assessed as combination index by measuring reduction in cell viability at 4.8 uM after 72 hrs by MTT assay; assay type: functional

## CC1=C(O)C(=O)C=C2C1=CC=C1[C@@]2(C)CC[C@@]2(C)[C@@H]3C[C@](C)(NC(=O)NCCc4cccc(Cl)c4)CC[C@]3(C)CC[C@]12C
[1]
  Activity: inactive
[2]
  pIC50: 5.48
[3]
  pIC50: 5.90
[4]
  pIC50: 6.46
[5]
  pIC50: 6.25
[6]
  pIC50: 6.11
[7]
  pIC50: 5.94
[8]
  selectivity ratio: 2.59
[9]
  selectivity ratio: 9.31
[10]
  selectivity ratio: 5.81
[11]
  Activity: inactive
[12]
  Activity: inactive
[13]
  Activity: inactive
[14]
  Activity: 15%
[15]
  Activity: 31.8%
[16]
  Activity: Tde
[17]
  Activity: Active
[18]
  Activity: Active
[19]
  Activity: Active
[20]
  Activity: Active
[21]
  Activity: Active
[22]
  Activity: Active
[23]
  Activity: Active
[24]
  Activity: Active
[25]
  Activity: inactive
[26]
  Activity: inactive
[27]
  Activity: inactive
[28]
  Activity: inactive
[29]
  Activity: inactive
[30]
  Activity: Active
[31]
  Activity: Non-Toxic
[32]
  inhibition: Active
[33]
  inhibition: Active
[34]
  Activity: Non-Toxic
[35]
  inhibition: Active
[36]
  Activity: Non-Toxic
[37]
  CI: 1.047
[38]
  CI: 1.374
[39]
  CI: 1.44
[40]
  CI: 0.6855
[41]
  CI: 0.575
[42]
  CI: 0.7102
